Measured values reported in patent EP4610269A1, “UROKINASE PLASMINOGEN ACTIVATOR SURFACE RECEPTOR (UPAR) LIGANDS FOR DIAGNOSTIC OR THERAPEUTIC USE” (3B Pharmaceuticals GmbH, priority 2024, dated 2025).
Where two headings read alike, the source gives them in different places. *1 amine or outer side, *2 acyl side, *3 side chain or, on linkers, in order; H or OH if unused. Where a SMILES comes first, the peptide text is derived from it. Bridges are numbered along the chain shown (N, C = ends). [ ]: non-standard residue; d: D form. The star is where a group is joined. DOTA = O=C(O)CN1CCN(CC(=O)O)CCN(CC(=O)*)CCN(CC(=O)O)CC1; Pro(cis-4-F) = O=C(O)[C@@H]1C[C@H](F)CN1; Bta = N[C@@H](Cc1csc2ccccc12)C(=O)O; Hyp = O=C(O)[C@@H]1C[C@@H](O)CN1; 4Pal = N[C@@H](Cc1ccncc1)C(=O)O; Pentanoyl(4-Me) = CC(C)CCC(=O)*; X1 = O=C(CN1CCN([*:1])CC1)[*:2]; Cit = NC(=O)NCCC[C@H](N)C(=O)O; NMeL = CN[C@@H](CC(C)C)C(=O)O; Butoxycarbonyl = CCCCOC(=O)*; Phg = N[C@H](C(=O)O)c1ccccc1; Api = NC1(C(=O)O)CCNCC1; Nva = CCC[C@H](N)C(=O)O; Dap = NC[C@H](N)C(=O)O; Hexanoyl = CCCCCC(=O)*; Pentanoyl = CCCCC(=O)*; X2 = CCCOC(=O)*

Key:
[1] = biological target: T1, uPAR-expressing HEC-265 human endometrial adenocarcinoma cells (Homo sapiens, UniProt Q03405); assay: Competitive FACS binding assay; conditions: pIC50 category of FACS binding
T1 construct: Cell surface uPAR-expressing HEC-265 human endometrial adenocarcinoma cells; host or cells: HEC-265
T1 sequence (Q03405 23-335): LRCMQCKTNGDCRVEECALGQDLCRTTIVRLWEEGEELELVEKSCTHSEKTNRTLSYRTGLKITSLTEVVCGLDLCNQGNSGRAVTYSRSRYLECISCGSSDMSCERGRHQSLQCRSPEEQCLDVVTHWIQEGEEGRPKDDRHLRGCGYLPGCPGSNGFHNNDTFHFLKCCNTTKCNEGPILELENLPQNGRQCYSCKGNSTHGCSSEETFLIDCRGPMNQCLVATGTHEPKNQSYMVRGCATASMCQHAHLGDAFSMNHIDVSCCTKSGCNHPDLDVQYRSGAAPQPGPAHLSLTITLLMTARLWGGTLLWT
In short: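 HEC-265 cells incubated 1 h at 4 °C with 10 nM biotinylated uPAR peptide tracer plus increasing test compound, then stained with APC-streptavidin on ice. Median APC fluorescence by flow cytometry; 4PL fit gives pIC50.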

human uPAR (uPAR-Fc) = biological target: T2, human uPAR (uPAR-Fc) (Homo sapiens, UniProt Q03405); assay: Surface plasmon resonance (SPR) assay, single cycle kinetics; type: binding; conditions: pKD category for uPAR SPR activity assay, uPAR-Fc on Protein A-Chip, 25°C, read-out: pKD CAT (converted)
T2 construct: comprising amino acids Leu23-Arg303 according to UniProt entry Q03405.1; purchased R&D Systems 10378-UK-100
T2 sequence (Q03405 23-303): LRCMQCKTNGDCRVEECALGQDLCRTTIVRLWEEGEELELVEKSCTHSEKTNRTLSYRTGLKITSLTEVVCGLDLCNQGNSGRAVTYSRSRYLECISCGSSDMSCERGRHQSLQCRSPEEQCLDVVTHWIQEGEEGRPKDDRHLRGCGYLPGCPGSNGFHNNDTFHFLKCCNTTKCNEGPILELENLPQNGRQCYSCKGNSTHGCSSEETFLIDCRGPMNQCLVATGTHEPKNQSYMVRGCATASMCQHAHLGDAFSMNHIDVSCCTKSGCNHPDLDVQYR
In short: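 uPAR-Fc (Leu23-Arg303 extracellular domains, human IgG1 Fc) captured on Protein A chip to ~2000 RU; single-cycle kinetics at 25°C in HEPES running buffer pH 7.4 with 0.1% DMSO. KD from double-referenced sensorgrams fitted to 1:1 Langmuir model, reported as pKD.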

For `CCCCOC(=O)N[C@H]1CSSC[C@@H](C(N)=O)NC(=O)[C@H](CCC)NC(=O)[C@H]([C@@H](C)CC)NC(=O)[C@@H]2C[C@@H](O)CN2C(=O)[C@@H]2C[C@H](F)CN2C(=O)[C@H](Cc2ccccc2)NC(=O)[C@H](Cc2ccc(O)cc2)NC(=O)[C@H](CNC(=O)CN2CCN(CC(=O)O)CCN(CC(=O)O)CCN(CC(=O)O)CC2)NC(=O)[C@H]([C@@H](C)O)NC1=O` [UPAR-455, Butoc-[Cys-Thr-Dap(DOTA)-Tyr-Phe-4Cfp-Hyp-Ile-Nva-Cys]-NH2] (Butoxycarbonyl-CT[Dap](DOTA)YF[Pro(cis-4-F)][Hyp]I[Nva]C-NH2; disulfide 1-10), which IC50 [1] is on record?
Its IC50 is ≤ 10 nM.

And the Kd (human uPAR (uPAR-Fc); single cycle kinetics)?
The Kd was < 1.58 nM.

With `CC[C@H](C)[C@@H]1NC(=O)C2(CCN(C(=O)CN3CCN(CC(=O)O)CCN(CC(=O)O)CCN(CC(=O)O)CC3)CC2)NC(=O)[C@@H]2CCCN2C(=O)[C@H](Cc2ccccc2)NC(=O)[C@H](Cc2ccc(O)cc2)NC(=O)[C@H](CCC(N)=O)NC(=O)[C@H](CCCNC(=N)N)NC(=O)[C@@H](NC(=O)CCC(C)C)CSSC[C@@H](C(N)=O)NC(=O)[C@H](CC(C)C)NC1=O` [UPAR-152, iHex-[Cys-Arg-Gln-Tyr-Phe-Pro-Apc(DOTA)-Ile-Leu-Cys]-NH2] ({Pentanoyl(4-Me)}-CRQYFP[Api](DOTA)ILC-NH2; disulfide 1-10) as the molecule, how does the IC50 [1] read?
The IC50 was ≤ 10 nM.

And the Kd (human uPAR (uPAR-Fc))?
The Kd was < 1.58 nM.

For `CC[C@H](C)[C@@H]1NC(=O)[C@@H]2C[C@@H](O)CN2C(=O)[C@@H]2CCCN2C(=O)[C@H](Cc2ccccc2)NC(=O)[C@H](Cc2ccc(O)cc2)NC(=O)[C@H](CCC(N)=O)NC(=O)[C@H](CCCNC(N)=O)NC(=O)[C@@H](NC(=O)[C@H](CC(C)C)NC(=O)CN2CCN(CC(=O)O)CCN(CC(=O)O)CCN(CC(=O)O)CC2)CSSC[C@@H](C(N)=O)NC(=O)[C@H](CC(C)C)N(C)C1=O` [UPAR-371, DOTA-Leu-[Cys-Cit-Gln-Tyr-Phe-Pro-Hyp-Ile-Nml-Cys]-NH2] ({DOTA}-LC[Cit]QYFP[Hyp]I[NMeL]C-NH2; disulfide 2-11), which IC50 [1] is on record?
The IC50 was ≥ 126 nM.

And the Kd (human uPAR (uPAR-Fc); single cycle kinetics)?
Its Kd is > 100 nM.

With `CCCOC(=O)N[C@H]1CSSC[C@@H](C(N)=O)NC(=O)[C@H](CCC)NC(=O)[C@H]([C@@H](C)CC)NC(=O)[C@@H]2C[C@@H](O)CN2C(=O)[C@@H]2CCCN2C(=O)[C@H](Cc2ccccc2)NC(=O)[C@H](Cc2ccc(O)cc2)NC(=O)[C@H](CCCCNC(=O)CN2CCN(CC(=O)O)CCN(CC(=O)O)CCN(CC(=O)O)CC2)NC(=O)[C@H](CCCNC(N)=O)NC1=O` [UPAR-267, Prpoc-[Cys-Cit-Lys(DOTA)-Tyr-Phe-Pro-Hyp-Ile-Nva-Cys]-NH2] (X2-C[Cit]K(DOTA)YFP[Hyp]I[Nva]C-NH2; disulfide 1-10) as the molecule, how does the IC50 [1] read?
The IC50 was 39.8 to 100 nM.

And the Kd (human uPAR (uPAR-Fc))?
Its Kd is 10 to 100 nM.

For `CCCCCC(=O)N[C@@H](CO)C(=O)N[C@@H](CC(C)C)C(=O)N[C@H]1CSSC[C@@H](C(N)=O)NC(=O)[C@H](CC(C)C)NC(=O)[C@H]([C@@H](C)CC)NC(=O)[C@H](C)NC(=O)[C@@H]2CCCN2C(=O)[C@H](Cc2ccccc2)NC(=O)[C@H](Cc2ccccc2)NC(=O)[C@H](CCC(N)=O)NC(=O)[C@H](CC(=O)O)NC1=O` [UPAR-202, Hex-Ser-Leu-[Cys-Asp-Gln-Phe-Phe-Pro-Ala-Ile-Leu-Cys]-NH2] (Hexanoyl-SLCDQFFPAILC-NH2; disulfide 3-12), which IC50 [1] is on record?
Its IC50 is ≤ 10 nM.

What about the Kd (human uPAR (uPAR-Fc)) of the same molecule?
Its Kd is < 1.58 nM.

Which IC50 [1] does the source give for `CCCCC(=O)N[C@H]1CSSC[C@@H](C(N)=O)NC(=O)[C@H](CCC)NC(=O)[C@H]([C@@H](C)CC)NC(=O)[C@@H]2C[C@@H](O)CN2C(=O)[C@@H]2CCCN2C(=O)[C@H](Cc2csc3ccccc23)NC(=O)[C@H](Cc2ccc(O)cc2)NC(=O)[C@H](CCC(N)=O)NC(=O)[C@H](CCCNC(=N)N)NC1=O` [UPAR-273, Pent-[Cys-Arg-Gln-Tyr-Bta-Pro-Hyp-Ile-Nva-Cys]-NH2] (Pentanoyl-CRQY[Bta]P[Hyp]I[Nva]C-NH2; disulfide 1-10) here?
The IC50 was ≤ 10 nM.

And the Kd (human uPAR (uPAR-Fc))?
The Kd was < 1.58 nM.

With `CCCCC(=O)N[C@H]1CSSC[C@@H](C(N)=O)NC(=O)[C@H](CCC)NC(=O)[C@H]([C@@H](C)CC)NC(=O)[C@@H]2C[C@@H](O)CN2C(=O)[C@@H]2CCCN2C(=O)[C@H](Cc2ccccc2)NC(=O)[C@H](Cc2ccncc2)NC(=O)[C@H](CCCCNC(=O)CN2CCN(CC(=O)O)CCN(CC(=O)O)CCN(CC(=O)O)CC2)NC(=O)[C@H](CCCNC(N)=O)NC1=O` [UPAR-336, Pent-[Cys-Cit-Lys(DOTA)-Ppa-Phe-Pro-Hyp-Ile-Nva-Cys]-NH2] (Pentanoyl-C[Cit]K(DOTA)[4Pal]FP[Hyp]I[Nva]C-NH2; disulfide 1-10) as the molecule, how does the IC50 [1] read?
The IC50 was ≤ 10 nM.

What about the Kd (human uPAR (uPAR-Fc)) of the same molecule?
The Kd was < 1.58 nM.

Which results are given for `CCCCC(=O)N[C@H]1CSSC[C@@H](C(N)=O)NC(=O)[C@H](CCC)NC(=O)[C@H]([C@@H](C)CC)NC(=O)[C@H](Cc2ccc(O)cc2)NC(=O)[C@@H]2CCCN2C(=O)[C@H](Cc2ccccc2)NC(=O)[C@H](Cc2ccc(O)cc2)NC(=O)[C@H](CCC(N)=O)NC(=O)[C@H](CCCNC(=N)N)NC1=O` [UPAR-226, Pent-[Cys-Arg-Gln-Tyr-Phe-Pro-Tyr-Ile-Nva-Cys]-NH2] (Pentanoyl-CRQYFPYI[Nva]C-NH2; disulfide 1-10)?
IC50 [1]: ≤ 10 nM; Kd (human uPAR (uPAR-Fc)): < 1.58 nM

How did the IC50 [1] turn out when `CCCCC(=O)N[C@H]1CSSC[C@@H](C(N)=O)NC(=O)[C@H](CCC)NC(=O)[C@H]([C@@H](C)CC)NC(=O)CNC(=O)[C@@H]2CCCN2C(=O)[C@H](Cc2ccccc2)NC(=O)[C@H](Cc2ccc(O)cc2)NC(=O)[C@H](CCCCNC(=O)CN2CCN(CC(=O)O)CCN(CC(=O)O)CCN(CC(=O)O)CC2)NC(=O)[C@H](CCCNC(N)=O)NC1=O` [UPAR-425, Pent-[Cys-Cit-Lys(DOTA)-Tyr-Phe-Pro-Gly-Ile-Nva-Cys]-NH2] (Pentanoyl-C[Cit]K(DOTA)YFPGI[Nva]C-NH2; disulfide 1-10) was run?
The IC50 was ≤ 10 nM.

What about the Kd (human uPAR (uPAR-Fc); single cycle kinetics) of the same molecule?
Its Kd is < 1.58 nM.

With `CC[C@H](C)[C@@H]1NC(=O)[C@@H](C)NC(=O)[C@@H]2CCCN2C(=O)[C@H](Cc2ccccc2)NC(=O)[C@H](Cc2ccc(O)cc2)NC(=O)[C@H](CCC(N)=O)NC(=O)[C@H](CCCNC(N)=O)NC(=O)[C@@H](NC(=O)CNC(C)=O)CSSC[C@@H](C(N)=O)NC(=O)[C@H](CC(C)C)NC1=O` [UPAR-334, Ac-Gly-[Cys-Cit-Gln-Tyr-Phe-Pro-ala-Ile-Leu-Cys]-NH2] (Ac-GC[Cit]QYFP[dA]ILC-NH2; disulfide 2-11) as the molecule, how does the IC50 [1] read?
The IC50 was ≥ 126 nM.

What about the Kd (human uPAR (uPAR-Fc)) of the same molecule?
Its Kd is > 100 nM.

For `CCCCC(=O)N[C@H]1CSSC[C@@H](C(N)=O)NC(=O)[C@H](CCC)NC(=O)[C@H]([C@@H](C)CC)NC(=O)[C@@H]2C[C@@H](O)CN2C(=O)[C@@H]2CCCN2C(=O)[C@H](Cc2ccccc2)NC(=O)[C@H](c2ccccc2)NC(=O)[C@H](CCC(N)=O)NC(=O)[C@H](CCCNC(=N)N)NC1=O` [UPAR-196, Pent-[Cys-Arg-Gln-Phg-Phe-Pro-Hyp-Ile-Nva-Cys]-NH2] (Pentanoyl-CRQ[Phg]FP[Hyp]I[Nva]C-NH2; disulfide 1-10), which IC50 [1] is on record?
The IC50 was ≥ 126 nM.

And the Kd (human uPAR (uPAR-Fc))?
The Kd was > 100 nM.

With `CCCCC(=O)N[C@H]1CSSC[C@@H](C(N)=O)NC(=O)[C@H](CCC)NC(=O)[C@H]([C@@H](C)CC)NC(=O)CN2CCN(CC2)C(=O)[C@H](Cc2ccccc2)NC(=O)[C@H](Cc2ccc(O)cc2)NC(=O)[C@H](CCC(N)=O)NC(=O)[C@H](CCCNC(=N)N)NC1=O` [UPAR-271, Pent-[Cys-Arg-Gln-Tyr-Phe-PPAc-Ile-Nva-Cys]-NH2] (Pentanoyl-CRQYF[X1]I[Nva]C-NH2; disulfide 1-9) as the molecule, how does the IC50 [1] read?
The IC50 was ≥ 126 nM.

What about the Kd (human uPAR (uPAR-Fc)) of the same molecule?
Its Kd is > 100 nM.
